EC50 data for 7 compounds are collected here from US10414811B2, “Protease-resistant lipidated GLP-1 analogs” (MEDIMMUNE LIMITED, priority 2015, dated 2019).

Read-outs that look alike come from different tables or passages of the source.

Type in all cases: cell-based
For experiment [1], the target named is T1, human glucose-dependent insulinotropic peptide receptor (GIPR) (Homo sapiens, UniProt P48546).
T1 construct: expressed in transfected cells
T1 sequence (P48546 22-466): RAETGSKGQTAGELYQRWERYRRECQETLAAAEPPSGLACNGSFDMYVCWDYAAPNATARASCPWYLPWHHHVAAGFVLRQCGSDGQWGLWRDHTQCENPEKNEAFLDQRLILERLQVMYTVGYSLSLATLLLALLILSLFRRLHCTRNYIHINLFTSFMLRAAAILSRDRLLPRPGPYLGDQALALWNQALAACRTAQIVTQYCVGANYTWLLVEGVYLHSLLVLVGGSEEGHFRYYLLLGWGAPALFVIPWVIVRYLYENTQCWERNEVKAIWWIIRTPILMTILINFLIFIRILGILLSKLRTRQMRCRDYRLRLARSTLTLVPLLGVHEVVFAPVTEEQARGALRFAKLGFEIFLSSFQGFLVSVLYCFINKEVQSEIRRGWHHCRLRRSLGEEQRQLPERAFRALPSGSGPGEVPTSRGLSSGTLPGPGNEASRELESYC
Put plainly: cAMP assay, human GIPR cells. The method, boiled down: (§1)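 Peptide-stimulated cAMP measured by two-step HTRF after a 30 min room-temperature incubation with receptor-expressing cells (hGLP-1R, hGIPR at 1×10^5 cells/ml; hGCGR at 2×10^5 cells/ml). Duplicate dilutions; EC50 from 4-parameter logistic fit of % Delta F.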
In general terms: Cyclic AMP is a second messenger, typically raised through Gs and lowered through Gi signalling.

The target in experiment [2] is T2, human GLP-1 receptor (GLP-1R) (Homo sapiens, UniProt P43220).
T2 construct: expressed in transfected cells
Put plainly: cAMP assay, human GLP-1R cells. The method, boiled down:
as §1

The target in experiment [3] is T3, human glucagon receptor (GCGR) (Homo sapiens, UniProt P47871).
T3 construct: expressed in transfected cells
The experiment is described as follows: cAMP assay, human GCGR cells. In outline: as §1

Where [4] appears, read: cAMP assay, first determination (n1), read-out: Primary assay EC50 GIP-R (n1).
The mark [5] stands for this setting: cAMP assay, second determination (n2), read-out: Primary assay EC50 GIP-R (n2).
[6] abbreviates: cAMP assay, first determination (n1), read-out: Primary assay EC50 GLP-1R n1.
Where [7] appears, read: cAMP assay, second determination (n2), read-out: Primary assay EC50 GLP-1R n2.
[8] abbreviates: mean of n1 and n2, read-out: Mean pM GLP-1R.
Where [9] appears, read: cAMP assay, first determination (n1), read-out: Primary assay EC50 Gluc-R (n1).
[10] abbreviates: cAMP assay, second determination (n2), read-out: Primary assay EC50 Gluc-R (n2).
The mark [11] stands for this setting: first run (n1), cAMP activity, read-out: Primary assay EC50 GIP-R.
Where [12] appears, read: second run (n2), cAMP activity, read-out: Primary assay EC50 GIP-R.
Where [13] appears, read: first run (n1), cAMP activity, read-out: Primary assay EC50 GLP-1R n1.
[14] abbreviates: second run (n2), cAMP activity, read-out: Primary assay EC50 GLP-1R n2.
[15] abbreviates: first run (n1), cAMP activity of substituted and mono-lipidated peptides, read-out: Primary assay EC50 Gluc-R.
Setting [16] is: second run (n2), cAMP activity, read-out: Primary assay EC50 Gluc-R.

T3 sequence (P47871 26-477): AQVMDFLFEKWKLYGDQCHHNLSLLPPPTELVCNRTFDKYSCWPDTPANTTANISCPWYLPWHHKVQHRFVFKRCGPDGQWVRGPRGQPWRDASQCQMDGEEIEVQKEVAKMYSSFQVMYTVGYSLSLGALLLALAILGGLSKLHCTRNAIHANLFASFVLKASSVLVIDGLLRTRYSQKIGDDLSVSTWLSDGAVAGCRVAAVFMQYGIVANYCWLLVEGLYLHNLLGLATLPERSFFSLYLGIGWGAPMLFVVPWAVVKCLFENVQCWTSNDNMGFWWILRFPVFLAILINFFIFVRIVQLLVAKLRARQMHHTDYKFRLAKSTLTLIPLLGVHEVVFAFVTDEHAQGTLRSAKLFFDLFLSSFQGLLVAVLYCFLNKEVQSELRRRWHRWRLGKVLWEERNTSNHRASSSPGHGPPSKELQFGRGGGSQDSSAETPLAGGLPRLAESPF
T2 sequence (P43220 24-463): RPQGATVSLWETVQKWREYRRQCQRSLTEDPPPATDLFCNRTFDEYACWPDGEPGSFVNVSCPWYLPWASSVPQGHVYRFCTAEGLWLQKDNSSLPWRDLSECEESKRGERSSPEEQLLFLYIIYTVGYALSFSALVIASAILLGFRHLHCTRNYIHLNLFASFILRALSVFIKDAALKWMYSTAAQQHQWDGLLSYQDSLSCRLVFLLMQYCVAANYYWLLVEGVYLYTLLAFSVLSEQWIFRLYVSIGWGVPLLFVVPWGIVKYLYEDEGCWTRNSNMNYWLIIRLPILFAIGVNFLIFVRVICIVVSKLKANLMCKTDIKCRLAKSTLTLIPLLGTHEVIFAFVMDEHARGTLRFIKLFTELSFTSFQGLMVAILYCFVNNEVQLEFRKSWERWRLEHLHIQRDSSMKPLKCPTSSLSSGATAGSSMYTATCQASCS

As for `CCCCCCCCCCCCCCCCCC(=O)N[C@@H](CCC(=O)N[C@@H](CCC(=O)NCCCC[C@H](NC(=O)[C@@H](NC(=O)[C@@H](NC(=O)[C@](C)(Cc1ccccc1)NC(=O)[C@H](C)NC(=O)[C@@H](NC(=O)[C@](C)(Cc1ccccc1)NC(=O)[C@H](CCC(=O)O)NC(=O)[C@](C)(CCCCN)NC(=O)[C@H](C)NC(=O)[C@H](C)NC(=O)[C@H](CCC(=O)O)NC(=O)CNC(=O)[C@H](CCC(=O)O)NC(=O)[C@H](CC(C)C)NC(=O)[C@](C)(Cc1ccccc1)NC(=O)[C@H](CO)NC(=O)[C@](C)(CO)NC(=O)[C@@H](NC(=O)[C@H](CC(=O)O)NC(=O)[C@H](CO)NC(=O)[C@@H](NC(=O)[C@](C)(Cc1ccccc1)NC(=O)[C@H](CO)NC(=O)CNC(=O)[C@H](CCC(=O)O)NC(=O)C(C)(C)NC(=O)[C@@H](N)Cc1c[nH]cn1)[C@@H](C)O)C(C)C)[C@@H](C)CC)C(C)C)C(C)C)C(=O)NCC(=O)NCC(N)=O)C(=O)O)C(=O)O` [compound 183], the EC50 in experiment [1] (setting [4]) is not below 27000 pM; in experiment [1] (setting [5]), not below 27000 pM; in experiment [2] (setting [6]) it was 64 pM; in experiment [2] (setting [7]) it was 18 pM; in experiment [2] (setting [8]), 40.9 pM; in experiment [3] (setting [9]) it was not below 27000 pM. For the same compound, in experiment [3] (setting [10]), the EC50 is not below 27000 pM.
`CCCCCCCCCCCCCCCCCC(=O)NCCCCCC(=O)NCCCC[C@H](NC(=O)[C@@H](NC(=O)[C@@H](NC(=O)[C@](C)(Cc1ccccc1)NC(=O)[C@H](C)NC(=O)[C@@H](NC(=O)[C@](C)(Cc1ccccc1)NC(=O)[C@H](CCC(=O)O)NC(=O)[C@](C)(CCCCN)NC(=O)[C@H](C)NC(=O)[C@H](C)NC(=O)[C@H](CCC(=O)O)NC(=O)CNC(=O)[C@H](CCC(=O)O)NC(=O)[C@H](CC(C)C)NC(=O)[C@](C)(Cc1ccccc1)NC(=O)[C@H](CO)NC(=O)[C@](C)(CO)NC(=O)[C@@H](NC(=O)[C@H](CC(=O)O)NC(=O)[C@H](CO)NC(=O)[C@@H](NC(=O)[C@](C)(Cc1ccccc1)NC(=O)[C@H](CO)NC(=O)CNC(=O)[C@H](CCC(=O)O)NC(=O)C(C)(C)NC(=O)[C@@H](N)Cc1c[nH]cn1)[C@@H](C)O)C(C)C)[C@@H](C)CC)C(C)C)C(C)C)C(=O)NCC(=O)NCC(N)=O` [compound 185]: the EC50 in experiment [1] (setting [4]) is not below 28000 pM; in experiment [1] (setting [5]), not below 28000 pM; in experiment [2] (setting [6]), 380 pM; in experiment [2] (setting [7]), 120 pM; in experiment [2] (setting [8]) it was 251 pM; in experiment [3] (setting [9]), not below 28000 pM. In addition, the EC50 in experiment [3] (setting [10]) was not below 28000 pM.
`CCCCCCCCCCCCCCCCCC(=O)NCCCCCC(=O)NCCCCCC(=O)NCCCC[C@H](NC(=O)[C@@H](NC(=O)[C@@H](NC(=O)[C@](C)(Cc1ccccc1)NC(=O)[C@H](C)NC(=O)[C@@H](NC(=O)[C@](C)(Cc1ccccc1)NC(=O)[C@H](CCC(=O)O)NC(=O)[C@](C)(CCCCN)NC(=O)[C@H](C)NC(=O)[C@H](C)NC(=O)[C@H](CCC(=O)O)NC(=O)CNC(=O)[C@H](CCC(=O)O)NC(=O)[C@H](CC(C)C)NC(=O)[C@](C)(Cc1ccccc1)NC(=O)[C@H](CO)NC(=O)[C@](C)(CO)NC(=O)[C@@H](NC(=O)[C@H](CC(=O)O)NC(=O)[C@H](CO)NC(=O)[C@@H](NC(=O)[C@](C)(Cc1ccccc1)NC(=O)[C@H](CO)NC(=O)CNC(=O)[C@H](CCC(=O)O)NC(=O)C(C)(C)NC(=O)[C@@H](N)Cc1c[nH]cn1)[C@@H](C)O)C(C)C)[C@@H](C)CC)C(C)C)C(C)C)C(=O)NCC(=O)NCC(N)=O` [compound 186]: the EC50 in experiment [1] (setting [4]) was not below 27000 pM; in experiment [1] (setting [5]), not below 27000 pM; in experiment [2] (setting [6]) it was 130 pM; in experiment [2] (setting [7]), 50 pM; in experiment [2] (setting [8]), 87.5 pM; in experiment [3] (setting [9]), not below 27000 pM. In experiment [3] (setting [10]), the EC50 was not below 27000 pM.
For `CCCCCCCCCCCCCCCCCC(=O)NCCCCCC(=O)NCCCCCC(=O)NCCCCCC(=O)NCCCC[C@H](NC(=O)[C@@H](NC(=O)[C@@H](NC(=O)[C@](C)(Cc1ccccc1)NC(=O)[C@H](C)NC(=O)[C@@H](NC(=O)[C@](C)(Cc1ccccc1)NC(=O)[C@H](CCC(=O)O)NC(=O)[C@](C)(CCCCN)NC(=O)[C@H](C)NC(=O)[C@H](C)NC(=O)[C@H](CCC(=O)O)NC(=O)CNC(=O)[C@H](CCC(=O)O)NC(=O)[C@H](CC(C)C)NC(=O)[C@](C)(Cc1ccccc1)NC(=O)[C@H](CO)NC(=O)[C@](C)(CO)NC(=O)[C@@H](NC(=O)[C@H](CC(=O)O)NC(=O)[C@H](CO)NC(=O)[C@@H](NC(=O)[C@](C)(Cc1ccccc1)NC(=O)[C@H](CO)NC(=O)CNC(=O)[C@H](CCC(=O)O)NC(=O)C(C)(C)NC(=O)[C@@H](N)Cc1c[nH]cn1)[C@@H](C)O)C(C)C)[C@@H](C)CC)C(C)C)C(C)C)C(=O)NCC(=O)NCC(N)=O` [compound 187], the EC50 in experiment [1] (setting [4]) was not below 26000 pM; in experiment [1] (setting [5]) it was not below 26000 pM; in experiment [2] (setting [6]) it was 64 pM; in experiment [2] (setting [7]), 31 pM; in experiment [2] (setting [8]), 47.4 pM; in experiment [3] (setting [9]) it was not below 26000 pM. The EC50 in experiment [3] (setting [10]) is not below 26000 pM.
As to `CC[C@H](C)[C@H](NC(=O)[C@](C)(Cc1ccccc1)NC(=O)[C@H](CCC(=O)O)NC(=O)[C@](C)(CCCCN)NC(=O)[C@H](C)NC(=O)[C@H](C)NC(=O)[C@H](CCC(=O)O)NC(=O)CNC(=O)[C@H](CCC(=O)O)NC(=O)[C@H](CC(C)C)NC(=O)[C@](C)(Cc1ccccc1)NC(=O)[C@H](CO)NC(=O)[C@](C)(CO)NC(=O)[C@@H](NC(=O)[C@H](CC(=O)O)NC(=O)[C@H](CO)NC(=O)[C@@H](NC(=O)[C@](C)(Cc1ccccc1)NC(=O)[C@H](CO)NC(=O)CNC(=O)[C@H](CCC(=O)O)NC(=O)C(C)(C)NC(=O)[C@@H](N)Cc1c[nH]cn1)[C@@H](C)O)C(C)C)C(=O)N[C@@H](C)C(=O)N[C@@](C)(Cc1ccccc1)C(=O)N[C@H](C(=O)N[C@H](C(=O)N[C@@H](CCCCNC(=O)CC[C@H](NC(=O)CCCCCCCCCCCCCCCCC(=O)O)C(=O)O)C(=O)NCC(=O)NCC(N)=O)C(C)C)C(C)C` [compound 191], the EC50 in experiment [1] (setting [11]) was not below 28000 pM; in experiment [1] (setting [12]), not below 28000 pM; in experiment [2] (setting [13]), 250 pM; in experiment [2] (setting [8]) it was 182 pM; in experiment [2] (setting [14]), 110 pM; in experiment [3] (setting [15]) it was not below 28000 pM. Moreover, the EC50 in experiment [3] (setting [16]) was not below 28000 pM.
As for `CC[C@H](C)[C@H](NC(=O)[C@](C)(Cc1ccccc1)NC(=O)[C@H](CCC(=O)O)NC(=O)[C@](C)(CCCCN)NC(=O)[C@H](C)NC(=O)[C@H](C)NC(=O)[C@H](CCC(=O)O)NC(=O)CNC(=O)[C@H](CCC(=O)O)NC(=O)[C@H](CC(C)C)NC(=O)[C@](C)(Cc1ccccc1)NC(=O)[C@H](CO)NC(=O)[C@](C)(CO)NC(=O)[C@@H](NC(=O)[C@H](CC(=O)O)NC(=O)[C@H](CO)NC(=O)[C@@H](NC(=O)[C@](C)(Cc1ccccc1)NC(=O)[C@H](CO)NC(=O)CNC(=O)[C@H](CCC(=O)O)NC(=O)C(C)(C)NC(=O)[C@@H](N)Cc1c[nH]cn1)[C@@H](C)O)C(C)C)C(=O)N[C@@H](C)C(=O)N[C@@](C)(Cc1ccccc1)C(=O)N[C@H](C(=O)N[C@H](C(=O)N[C@@H](CCCCNC(=O)CC[C@H](NC(=O)CC[C@H](NC(=O)CCCCCCCCCCCCCCCCC(=O)O)C(=O)O)C(=O)O)C(=O)NCC(=O)NCC(N)=O)C(C)C)C(C)C` [compound 192], the EC50 was not below 27000 pM in experiment [1] (setting [11]); 170 pM in experiment [2] (setting [13]); 113 pM in experiment [2] (setting [8]); 60 pM in experiment [2] (setting [14]); not below 27000 pM in experiment [3] (setting [15]).
Consider `CC[C@H](C)[C@H](NC(=O)[C@](C)(Cc1ccccc1)NC(=O)[C@H](CCC(=O)O)NC(=O)[C@](C)(CCCCN)NC(=O)[C@H](C)NC(=O)[C@H](C)NC(=O)[C@H](CCC(=O)O)NC(=O)CNC(=O)[C@H](CCC(=O)O)NC(=O)[C@H](CC(C)C)NC(=O)[C@](C)(Cc1ccccc1)NC(=O)[C@H](CO)NC(=O)[C@](C)(CO)NC(=O)[C@@H](NC(=O)[C@H](CC(=O)O)NC(=O)[C@H](CO)NC(=O)[C@@H](NC(=O)[C@](C)(Cc1ccccc1)NC(=O)[C@H](CO)NC(=O)CNC(=O)[C@H](CCC(=O)O)NC(=O)C(C)(C)NC(=O)[C@@H](N)Cc1c[nH]cn1)[C@@H](C)O)C(C)C)C(=O)N[C@@H](C)C(=O)N[C@@](C)(Cc1ccccc1)C(=O)N[C@H](C(=O)N[C@H](C(=O)N[C@@H](CCCCNC(=O)CC[C@H](NC(=O)CC[C@H](NC(=O)CC[C@H](NC(=O)CCCCCCCCCCCCCCCCC(=O)O)C(=O)O)C(=O)O)C(=O)O)C(=O)NCC(=O)NCC(N)=O)C(C)C)C(C)C` [compound 193], for which the EC50 in experiment [1] (setting [11]) was not below 26000 pM; in experiment [1] (setting [12]), not below 26000 pM; in experiment [2] (setting [13]) it was 330 pM; in experiment [2] (setting [8]) it was 213 pM; in experiment [2] (setting [14]), 95 pM; in experiment [3] (setting [15]), not below 26000 pM. In addition, the EC50 in experiment [3] (setting [16]) was not below 26000 pM.
